Where a name gives a salt, the structure may show the parent alone.
Test system: ATF4
Assay: HEK-ATF4 High Content Imaging assay (prevention of Tunicamycin induced ISR)
Type: cell-based
Conditions: Homo sapiens, Wild-type HEK293 cells, 6 h incubation, ATF4 signal ratio between nucleus and cytoplasm
Method: Example compounds were tested in the HEK-ATF4 High Content Imaging assay to assess their pharmacological potency to prevent Tunicamycin induced ISR. Wild-type HEK293 cells were plated in 384-well imaging assay plates at a density of 12,000 cells per well in growth medium (containing DMEM/F12, 10% FBS, 2 mM L-Glutamine, 100 U/mL Penicillin—100 μg/mL Streptomycin) and incubated at 37° C., 5% CO2. 24 h later, the medium was changed to 50 μL assay medium per well (DMEM/F12, 0.3% FBS, 2mM L-Glutamine, 100 U/mL Penicillin—100 μg/mL Streptomycin). Example compounds were serially diluted in DMSO, spotted into intermediate plates and prediluted with assay medium containing 3.3 […] Tunicamycin to give an 11-fold excess of final assay concentration. In addition to the example compound testing area, the plates also contained multiples of control wells for assay normalization purposes, wells containing Tunicamycin but no example compounds (High control), as well as wells containing neither example compound nor Tunicamycin (Low control). The assay was started by transferring 5 μL from the intermediate plate into the assay plates, followed by incubation for 6 h at 37° C., 5% CO2. Subsequently, cells were fixed (4% PFA in PBS, 20 min at r.t.) and submitted to indirect ATF4 immunofluorescence staining (primary antibody rabbit anti ATF4, clone D4B8, Cell Signaling Technologies; secondary antibody Alexa Fluor 488 goat anti-rabbit IgG (H+L), Thermofisher Scientific). Nuclei were stained using Hoechst dye (Thermofisher Scientific), and plates were imaged on an Opera Phenix High Content imaging platform equipped with 405 nm and 488 nm excitation. Finally, images were analyzed using script based algorithms. The main readout HEK-ATF4 monitored the ATF4 signal ratio between nucleus and cytoplasm. Tunicamycin induced an increase in the overall ATF4 ratio signal, which was prevented by ISR modulating example compounds. In addition, HEK-CellCount readout was derived from counting the number of stained nuclei corresponding to healthy cells. This readout served as an internal toxicity control.

IC50 | SMILES
1 to 500 nM | O=C(COc1ccc(Cl)c(F)c1)N[C@H]1CC[C@H](C(=O)N[C@H]2CC[C@H](OC(F)(F)F)C2)NC1 (single isomer, unassigned) [Example 53]
500 to 2000 nM | O=C(COc1ccc(Cl)c(F)c1)N[C@H]1CC[C@H](C(=O)N[C@@H]2CC[C@@H](OC(F)(F)F)C2)NC1 (single isomer, unassigned) [Example 54]
2000 to 15000 nM | O=C(COc1ccc(Cl)c(F)c1)N[C@H]1CC[C@H](C(=O)NCCCOC(F)(F)F)NC1 [Example 2, (2R,5S)-5-[2-(4-chloro-3-fluorophenoxy)acetamido]-N-[3-(trifluoromethoxy)propyl]piperidine-2-carboxamide hydrochloride]
1 to 500 nM | O=C(COc1ccc(Cl)c(F)c1)N[C@H]1CC[C@H](C(=O)NCc2ccc(C(F)(F)F)cc2)NC1 [Example 4, (2R,5S)-5-[2-(4-chloro-3-fluorophenoxy)acetamido]-N-{[4-(trifluoromethyl)phenyl]methyl}piperidine-2-carboxamide]
2000 to 15000 nM | O=C(COc1ccc(Cl)c(F)c1)N[C@H]1CC[C@H](C(=O)N2CC(OCCOC(F)(F)F)C2)NC1 [Example 5, 2-(4-chloro-3-fluorophenoxy)-N-[(3S,6R)-6-{3-[2-(trifluoromethoxy)ethoxy]azetidine-1-carbonyl}piperidin-3-yl]acetamide]
2000 to 15000 nM | O=C(COc1ccc(Cl)c(F)c1)N[C@H]1CC[C@H](C(=O)NOCCOC(F)(F)F)NC1 [Example 6, (2R,5S)-5-[2-(4-chloro-3-fluorophenoxy)acetamido]-N-[2-(trifluoromethoxy)ethoxy]piperidine-2-carboxamide]
1 to 500 nM | O=C(COc1ccc(Cl)c(F)c1)N[C@H]1CC[C@H](C(=O)Nc2ccc(Cl)cc2)NC1 [Example 8, (2R,5S)-5-[2-(4-chloro-3-fluorophenoxy)acetamido]-N-(4-chlorophenyl)piperidine-2-carboxamide]
2000 to 15000 nM | O=C(COc1ccc(Cl)c(F)c1)N[C@@H]1CC[C@@H](C(=O)Nc2ccc(Cl)cc2)NC1 [Example 9, (2S,5R)-5-[2-(4-chloro-3-fluorophenoxy)acetamido]-N-(4-chlorophenyl)piperidine-2-carboxamide]
2000 to 15000 nM | O=C(COc1ccc(Cl)c(F)c1)N[C@H]1CC[C@H](C(=O)Nc2ccccc2)NC1 [Example 10, (2R,5S)-5-[2-(4-chloro-3-fluorophenoxy)acetamido]-N-phenylpiperidine-2-carboxamide]
1 to 500 nM | O=C(COc1ccc(Cl)c(F)c1)N[C@H]1CC[C@H](C(=O)Nc2cccc(Cl)c2)NC1 [Example 11, (2R,5S)-5-[2-(4-chloro-3-fluorophenoxy)acetamido]-N-(3-chlorophenyl)piperidine-2-carboxamide]
1 to 500 nM | O=C(COc1ccc(Cl)c(F)c1)N[C@H]1CC[C@H](C(=O)Nc2cccc(C(F)(F)F)c2)NC1 [Example 12, (2R,5S)-5-[2-(4-chloro-3-fluorophenoxy)acetamido]-N-[3-(trifluoromethyl)phenyl]piperidine-2-carboxamide]
1 to 500 nM | O=C(COc1ccc(Cl)c(F)c1)N[C@H]1CC[C@H](C(=O)Nc2cccc(OC(F)(F)F)c2)NC1 [Example 13, (2R,5S)-5-[2-(4-chloro-3-fluorophenoxy)acetamido]-N-[3-(trifluoromethoxy)phenyl]piperidine-2-carboxamide]
2000 to 15000 nM | O=C(COc1ccc(Cl)c(F)c1)N[C@H]1CC[C@H](C(=O)NCc2ccc(Cl)cn2)NC1 [Example 14, (2R,5S)-5-[2-(4-chloro-3-fluorophenoxy)acetamido]-N-[(5-chloropyridin-2-yl)methyl]piperidine-2-carboxamide]
2000 to 15000 nM | O=C(COc1ccc(Cl)c(F)c1)N[C@H]1CC[C@H](C(=O)N[C@H]2CC[C@@H](OC(F)(F)F)CC2)NC1 [Example 15, (2R,5S)-5-[2-(4-chloro-3-fluorophenoxy)acetamido]-N-[(1s,4s)-4-(trifluoromethoxy)cyclohexyl]piperidine-2-carboxamide]
2000 to 15000 nM | COc1cc(Cl)ccc1NC(=O)[C@H]1CC[C@H](NC(=O)COc2ccc(Cl)c(F)c2)CN1 [Example 16, (2R,5S)-N-(4-chloro-2-methoxyphenyl)-5-[2-(4-chloro-3-fluorophenoxy)acetamido]piperidine-2-carboxamide]
2000 to 15000 nM | O=C(COc1ccc(Cl)c(F)c1)N[C@H]1CC[C@H](C(=O)NCc2ccc(C(F)(F)F)o2)NC1 [Example 17, (2R,5S)-5-[2-(4-chloro-3-fluorophenoxy)acetamido]-N-{[5-(trifluoromethyl)furan-2-yl]methyl}piperidine-2-carboxamide]
1 to 500 nM | O=C(COc1ccc(Cl)c(F)c1)N[C@H]1CC[C@H](C(=O)NCc2cc(C(F)(F)F)co2)NC1 [Example 18, (2R,5S)-5-[2-(4-chloro-3-fluorophenoxy)acetamido]-N-{[4-(trifluoromethyl)furan-2-yl]methyl}piperidine-2-carboxamide]
2000 to 15000 nM | O=C(COc1ccc(Cl)c(F)c1)N[C@H]1CC[C@H](C(=O)NC[C@H]2CC[C@@H](C(F)(F)F)CC2)NC1 [Example 19, (2R,5S)-5-[2-(4-chloro-3-fluorophenoxy)acetamido]-N-{[(1s,4s)-4-(trifluoromethyl)cyclohexyl]methyl}piperidine-2-carboxamide]
2000 to 15000 nM | COc1cccc(NC(=O)[C@H]2CC[C@H](NC(=O)COc3ccc(Cl)c(F)c3)CN2)c1 [Example 20, (2R,5S)-5-[2-(4-chloro-3-fluorophenoxy)acetamido]-N-(3-methoxyphenyl)piperidine-2-carboxamide]
1 to 500 nM | O=C(COc1ccc(Cl)c(F)c1)N[C@H]1CC[C@H](C(=O)Nc2ccc(F)c(C(F)(F)F)c2)NC1 [Example 21, (2R,5S)-5-[2-(4-chloro-3-fluorophenoxy)acetamido]-N-[4-fluoro-3-(trifluoromethyl)phenyl]piperidine-2-carboxamide]
1 to 500 nM | O=C(COc1ccc(Cl)c(F)c1)N[C@H]1CC[C@H](C(=O)Nc2cncc(C(F)(F)F)c2)NC1 [Example 22, (2R,5S)-5-[2-(4-chloro-3-fluorophenoxy)acetamido]-N-[5-(trifluoromethyl)pyridin-3-yl]piperidine-2-carboxamide]
500 to 2000 nM | O=C(COc1ccc(Cl)c(F)c1)N[C@H]1CC[C@H](C(=O)Nc2cccc(F)c2)NC1 [Example 23, (2R,5S)-5-[2-(4-chloro-3-fluorophenoxy)acetamido]-N-(3-fluorophenyl)piperidine-2-carboxamide]
1 to 500 nM | O=C(COc1ccc(Cl)c(F)c1)N[C@H]1CC[C@H](C(=O)Nc2cccc(C(F)F)c2)NC1 [Example 24, (2R,5S)-5-[2-(4-chloro-3-fluorophenoxy)acetamido]-N-[3-(difluoromethyl)phenyl]piperidine-2-carboxamide]
500 to 2000 nM | O=C(COc1ccc(Cl)c(F)c1)N[C@H]1CC[C@H](C(=O)Nc2ccc(Cl)cn2)NC1 [Example 25, (2R,5S)-5-[2-(4-chloro-3-fluorophenoxy)acetamido]-N-(5-chloropyridin-2-yl)piperidine-2-carboxamide]
2000 to 15000 nM | Cc1c(NC(=O)[C@H]2CC[C@H](NC(=O)COc3ccc(Cl)c(F)c3)CN2)cnn1CC(F)(F)F [Example 26, (2R,5S)-5-[2-(4-chloro-3-fluorophenoxy)acetamido]-N-[5-methyl-1-(2,2,2-trifluoroethyl)-1H-pyrazol-4-yl]piperidine-2-carboxamide]
